The values that follow come from PubChem BioAssay (NCI).

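In this assay, cells in 96-well plates receive the compound at five concentrations for 48 hours. Endpoints are linearly interpolated between the surrounding concentrations. GI50 = concentration required for 50% inhibition of growth. The concentration for full growth arrest is given as TGI.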 Where only a bound is given, the exact number is not on record here.

Among the test systems are OVCAR-4 ovarian; SK-MEL-28 melanoma; NCI-H226 lung; MDA-MB-231 breast; UO-31 renal; NCI/ADR-RES ovarian; HL-60(TB) leukemia; SNB-75 CNS; HS 578T breast; HOP-92 NSCLC.
Holding throughout (experiment): NCI anticancer screen, dose series, 48 h

On to `CNC(=O)c1cncc(/C=C/c2ccccc2C)c1`, for which the GI50 with OVCAR-4 ovarian, in the assay with SK-MEL-28 melanoma, with NCI-H226 lung, in the assay on MDA-MB-231 breast, in the assay with UO-31 renal and in the assay on NCI/ADR-RES ovarian was greater than 25 µM each time. For the same compound, the GI50 in the assay with HL-60(TB) leukemia is greater than 25 µM; in the assay on SNB-75 CNS, greater than 20.7 µM; in the assay with HS 578T breast it was greater than 25 µM; in the assay with HOP-92 NSCLC, greater than 25 µM. The TGI in the assay on OVCAR-4 ovarian, with SK-MEL-28 melanoma, in the assay with NCI-H226 lung, in the assay with MDA-MB-231 breast, in the assay on UO-31 renal and with NCI/ADR-RES ovarian was greater than 25 µM each time. Further, the TGI in the assay with HL-60(TB) leukemia, in the assay on SNB-75 CNS, with HS 578T breast and in the assay on HOP-92 NSCLC was greater than 25 µM in each case.

For `Cc1sc(C(=O)Nc2cc(C(=O)NCCCN(C)C)n(C)c2)cc1NC(=O)CCCN1C(=O)c2cccc3cccc(c23)C1=O`, the GI50 is 41 µM in the assay with OVCAR-4 ovarian; greater than 100 µM with SK-MEL-28 melanoma; greater than 100 µM with NCI-H226 lung; greater than 100 µM in the assay with MDA-MB-231 breast; greater than 100 µM in the assay with UO-31 renal; greater than 100 µM in the assay on NCI/ADR-RES ovarian. Moreover, the GI50 in the assay with HL-60(TB) leukemia, in the assay on SNB-75 CNS, in the assay on HS 578T breast and in the assay with HOP-92 NSCLC was greater than 100 µM throughout. The TGI in the assay on OVCAR-4 ovarian, in the assay on SK-MEL-28 melanoma, with NCI-H226 lung, in the assay with MDA-MB-231 breast, in the assay with UO-31 renal and in the assay on NCI/ADR-RES ovarian was greater than 100 µM throughout. The TGI in the assay on HL-60(TB) leukemia, in the assay with SNB-75 CNS, in the assay on HS 578T breast and in the assay on HOP-92 NSCLC was greater than 100 µM each time.

As for `CN(C)S(=O)(=O)c1ccc(NC(=O)COC(=O)c2ccc(S(=O)(=O)N3CCCCC3)cc2)cc1`, the GI50 in the assay on OVCAR-4 ovarian, in the assay on SK-MEL-28 melanoma, with NCI-H226 lung, in the assay with MDA-MB-231 breast, in the assay on UO-31 renal and in the assay on NCI/ADR-RES ovarian was greater than 100 µM in each case. For the same compound, the GI50 with HL-60(TB) leukemia, in the assay on SNB-75 CNS, with HS 578T breast and in the assay with HOP-92 NSCLC was greater than 100 µM throughout. Also, the TGI with OVCAR-4 ovarian, in the assay on SK-MEL-28 melanoma, with NCI-H226 lung, with MDA-MB-231 breast, with UO-31 renal and with NCI/ADR-RES ovarian was greater than 100 µM in each case. Moreover, the TGI with HL-60(TB) leukemia, in the assay with SNB-75 CNS, with HS 578T breast and in the assay with HOP-92 NSCLC was greater than 100 µM in each case.

On to `COC1(C(=O)N[C@@H](C)c2ccc(-n3cc(F)cn3)nc2)CCC(c2nc(C)cc(Nc3cc(C)[nH]n3)n2)CC1` (some centres undefined), for which the GI50 was 1.94 µM in the assay with OVCAR-4 ovarian; 10.2 µM in the assay on SK-MEL-28 melanoma; 0.222 µM in the assay with NCI-H226 lung; 1.14 µM in the assay with MDA-MB-231 breast; 0.436 µM in the assay on UO-31 renal; 3.74 µM in the assay with NCI/ADR-RES ovarian. Also, the GI50 in the assay on HL-60(TB) leukemia is 19.5 µM; in the assay on SNB-75 CNS it was 0.196 µM; in the assay on HS 578T breast, 0.248 µM; in the assay on HOP-92 NSCLC, 0.481 µM. For the same compound, the TGI came out at 17.9 µM with OVCAR-4 ovarian; 22.5 µM with SK-MEL-28 melanoma; 11.7 µM in the assay on NCI-H226 lung; 4.69 µM with MDA-MB-231 breast; 1.99 µM with UO-31 renal; 17.7 µM in the assay with NCI/ADR-RES ovarian. The TGI in the assay with HL-60(TB) leukemia was 41.8 µM; with SNB-75 CNS, 0.848 µM; in the assay with HS 578T breast, 1.31 µM; in the assay with HOP-92 NSCLC it was 2.58 µM.

In the case of `COc1ccc(N2C(C)=C(C#N)C34C(=O)N(c5ccccc5)C(=O)C3=C(O)C=CC24O)cc1` (centres undefined), the GI50 was 24.4 µM in the assay on OVCAR-4 ovarian; 12 µM with SK-MEL-28 melanoma; 13.5 µM in the assay on NCI-H226 lung; 14.5 µM in the assay on MDA-MB-231 breast; 13.9 µM in the assay with UO-31 renal; 29 µM in the assay with NCI/ADR-RES ovarian. The GI50 with HL-60(TB) leukemia was 15.5 µM; in the assay with SNB-75 CNS it was 14.8 µM; in the assay on HS 578T breast, 24.1 µM; in the assay with HOP-92 NSCLC it was 12.5 µM. Moreover, the TGI was 94.5 µM in the assay on OVCAR-4 ovarian; 30.1 µM with SK-MEL-28 melanoma; 35.1 µM in the assay with NCI-H226 lung; 29.8 µM with MDA-MB-231 breast; 55.8 µM in the assay on UO-31 renal; 91 µM in the assay on NCI/ADR-RES ovarian. The TGI is 65.9 µM in the assay with HL-60(TB) leukemia, 44.5 µM in the assay on SNB-75 CNS, greater than 100 µM with HS 578T breast and 45.3 µM in the assay with HOP-92 NSCLC.

In the case of `Cc1ccc2c(ccc3c[n+]4c5ccccc5ccc4n32)c1`, the GI50 was 1.32 µM with OVCAR-4 ovarian; 1.2 µM with SK-MEL-28 melanoma; 2.43 µM with NCI-H226 lung; 2.7 µM in the assay with MDA-MB-231 breast; 5.42 µM with UO-31 renal; greater than 100 µM in the assay on NCI/ADR-RES ovarian. Further, the GI50 in the assay on HL-60(TB) leukemia was 2.5 µM; in the assay on SNB-75 CNS, 1.18 µM; in the assay on HS 578T breast it was 0.959 µM; with HOP-92 NSCLC it was 1.54 µM. Further, the TGI is 4.64 µM in the assay on OVCAR-4 ovarian; 3.32 µM in the assay on SK-MEL-28 melanoma; 10.4 µM in the assay on NCI-H226 lung; 11.6 µM in the assay on MDA-MB-231 breast; 54 µM in the assay with UO-31 renal; greater than 100 µM in the assay on NCI/ADR-RES ovarian. Besides, the TGI worked out at 10.2 µM in the assay with HL-60(TB) leukemia, 8.05 µM in the assay with SNB-75 CNS, 4.71 µM with HS 578T breast and 5.47 µM with HOP-92 NSCLC.

In the case of `Cc1ccc(/C=C2\CN(C(=O)OC(C)(C)C)C/C(=C\c3ccc(C)cc3)C2=O)cc1`, the GI50 was 3.04 µM in the assay on OVCAR-4 ovarian; 11.6 µM with SK-MEL-28 melanoma; 1.22 µM in the assay on MDA-MB-231 breast; 1.16 µM in the assay with UO-31 renal; 0.281 µM in the assay with NCI/ADR-RES ovarian; 0.0409 µM in the assay on HL-60(TB) leukemia. Also, the GI50 in the assay with SNB-75 CNS was 0.693 µM; with HS 578T breast, 0.0562 µM; in the assay with HOP-92 NSCLC it was 8.97 µM. Also, the TGI is greater than 100 µM with OVCAR-4 ovarian; greater than 100 µM with SK-MEL-28 melanoma; greater than 100 µM in the assay with NCI-H226 lung; greater than 54.3 µM in the assay with MDA-MB-231 breast; greater than 100 µM in the assay on UO-31 renal; greater than 100 µM in the assay with NCI/ADR-RES ovarian. For the same compound, the TGI in the assay with HL-60(TB) leukemia is 0.473 µM; in the assay with SNB-75 CNS it was greater than 100 µM; in the assay on HS 578T breast it was 3.45 µM; in the assay with HOP-92 NSCLC, greater than 100 µM.

Consider `CN1CCN(CCc2cccc(C(=O)c3cnn(-c4ccc(F)cc4)c3N)c2)CC1`, for which the GI50 in the assay with OVCAR-4 ovarian, with SK-MEL-28 melanoma, with NCI-H226 lung, with MDA-MB-231 breast, in the assay with UO-31 renal and in the assay with NCI/ADR-RES ovarian was greater than 25 µM throughout. The GI50 in the assay on HL-60(TB) leukemia, in the assay with SNB-75 CNS, in the assay on HS 578T breast and in the assay on HOP-92 NSCLC was greater than 25 µM each time. The TGI in the assay on OVCAR-4 ovarian, in the assay with SK-MEL-28 melanoma, in the assay with NCI-H226 lung, with MDA-MB-231 breast, with UO-31 renal and in the assay with NCI/ADR-RES ovarian was greater than 25 µM each time. The TGI with HL-60(TB) leukemia, in the assay on SNB-75 CNS, in the assay on HS 578T breast and in the assay with HOP-92 NSCLC was greater than 25 µM in each case.

For `Cc1[c-]onc1C.Cc1[c-]onc1C.[Ag].[Ag].[NH-]S(=O)(=O)c1ccc(N=Nc2cc(N=Nc3ccc(S([NH-])(=O)=O)cc3)c3c(NC(=O)C(Cl)Cl)cccc3c2OC(=O)C(Cl)Cl)cc1`, the GI50 is 7.66 µM with OVCAR-4 ovarian; 8.18 µM with SK-MEL-28 melanoma; 12.6 µM with NCI-H226 lung; 5.44 µM in the assay on MDA-MB-231 breast; 6.06 µM in the assay on UO-31 renal; 21 µM in the assay on NCI/ADR-RES ovarian. Moreover, the GI50 was 11 µM in the assay with HL-60(TB) leukemia, 6.85 µM in the assay on SNB-75 CNS, 5.81 µM with HS 578T breast and 7.85 µM in the assay on HOP-92 NSCLC. For the same compound, the TGI in the assay on OVCAR-4 ovarian was 15.1 µM; in the assay on SK-MEL-28 melanoma, 17 µM; with NCI-H226 lung it was greater than 50 µM; in the assay with MDA-MB-231 breast it was 19.1 µM; in the assay on UO-31 renal, 12.8 µM; with NCI/ADR-RES ovarian, greater than 50 µM. Further, the TGI was 26.7 µM in the assay with HL-60(TB) leukemia, 18.9 µM in the assay with SNB-75 CNS, greater than 50 µM in the assay on HS 578T breast and 18.4 µM with HOP-92 NSCLC.

Turning to `COC(=O)[C@]12CC[C@@H](C)[C@H](C)[C@@H]1C1=CC[C@@H]3[C@@]4(C)C[C@@H](OC(C)=O)[C@H](O)[C@@](C)(COC(C)=O)[C@@H]4[C@H](O)C[C@@]3(C)[C@]1(C)CC2`, the GI50 in the assay on OVCAR-4 ovarian is 3.23 µM; in the assay on SK-MEL-28 melanoma, 2.42 µM; in the assay with NCI-H226 lung, 3.19 µM; in the assay on MDA-MB-231 breast, 1.87 µM; with UO-31 renal it was 2.01 µM; in the assay with NCI/ADR-RES ovarian it was 2.68 µM. The GI50 in the assay with HL-60(TB) leukemia was 2.11 µM; in the assay on SNB-75 CNS, 2.35 µM; in the assay on HS 578T breast, 2.95 µM; in the assay on HOP-92 NSCLC, 1.53 µM. Also, the TGI with OVCAR-4 ovarian worked out at 14.2 µM; in the assay on SK-MEL-28 melanoma, 6.7 µM; with NCI-H226 lung, 8.54 µM; with MDA-MB-231 breast it was 4.81 µM; with UO-31 renal, 7.2 µM; in the assay with NCI/ADR-RES ovarian it was 7.54 µM. In addition, the TGI with HL-60(TB) leukemia is 5.42 µM; in the assay with SNB-75 CNS, 11.7 µM; in the assay on HS 578T breast, 12.6 µM; in the assay on HOP-92 NSCLC, 5.68 µM.
